One experiment concerns human recombinant CtsB. As to the kind of experiment: Fluorescent protease activity assay, recombinant CtsB. In kind it is biochemical. As to conditions: 20 nM CtsB, 50 μM Ac-PLVQ-AMC, inhibitor 2 μM; 0.1 M sodium acetic buffer pH 4.6, 12 min, Ex/Em 353/442 nm. The protocol:
Ac-PLVE-FMK and Ac-VLPE-FMK inhibitory properties were evaluated against human recombinant CtsL and B. These recombinant enzymes were expressed in E. coli via plasmid transformation and further purification, using nickel-nitrilotriacetic acid (Ni-NTA) sepharose. Gel zymography assay was used to provide a preliminary evaluation of the ability of these recombinant proteins to degrade the gelatin substrate previously embedded in the gel (Supplementary Figure S1). Following Coomassie staining, the Cts were detectable as single bands. As expected, a translucent area was evident, due to the substrate digestion in the proximity of the proteins. Then, the recombinant proteins were tested for their ability to digest the Triticain-α substrate Ac-PLVQ via fluorescent protease activity assay, previously optimized by our group. This probe was conjugated with the fluorogenic chromophore 7-amino-4-methylcoumarin (Ac-PLVQ-AMC). After proteolytic cleavage, it emits a detectable fluorescent signal.
Total RNA extract from retinoblastoma […] cells was used to obtain cDNA. A pair of oligonucleotides ([…] and […]) was used for the amplification of DNA fragment containing CtsB, the product of which was ligated into pET15b (Merck Millipore, Billerica, MA, USA) using NdeI and XhoI. DNA fragment containing CtsL was amplified using a pair of oligonucleotides ([…] and […]) and ligated into pET28a (+) (Merck Millipore, Billerica, MA, USA) using NheI and HindIII. […]
The activity of recombinant CtsL and B was detected by the hydrolysis of the fluorogenic substrate Ac-Pro-Leu-Val-Gln- 7-amino-4-methylcoumarin (AMC) (Pepmic Suzhou Jiangsu, China). […] The substrate was added to a final concentration of 50 μM, and its hydrolysis was continuously measured for 12 min using a CLARIOstar® Plus plate reader (BMG Labtech Ortenberg Baden-Württemberg, Germany) at excitation and emission wavelengths of 353 and 442 nm, respectively.

The test system of another experiment is 769-P cells. Kind of experiment: Cell viability/proliferation (MTT), 769-P. The experiment is classed as cell-based, human. As to conditions: 2.5–250 μM; for Cell viability: 72 h; for Effect on cell proliferation: within 48 h. The protocol:
Figure 3 The effect of the peptide inhibitors on human 769-P and A498 renal cancer cell proliferation and proteolytic activity. (a) 769-P and (b) A498 cells were treated with increasing doses of Ac-PLVE-FMK (red bars) and Ac-VLPE-FMK (blue bars) (2.5–250 μM). Cell proliferation was measured after 24, 48, and 72 h via MTT (3-(4,5-dimethylthiazol-2-yl)-2,5-diphenyltetrazolium bromide) assay. Data represent the mean (±S.D.) of at least three independent experiments, each performed in triplicate. (c) Fluorescence microscopy evaluation and quantification of the cell proteolytic activity in 769-P and (d) A498 cells towards the fluorogenic substrate Ac-PLVQ-AMC in the absence or presence of Ac-PLVE-FMK and Ac-VLPE-FMK. The cells were seeded in a 96-well plate and after exposure to the peptides for 30 min prior incubation with the fluorescent substrate Ac-PLVQ-AMC for 10 min. Data are expressed as mean (±S.D.), and significance was calculated through one-way ANOVA followed by Dunnet’s test. * = p < 0.05, ** = p < 0.01, *** = p < 0.001.
The human renal cancer cell line lines […], A498 were obtained from Dr. Vadim Pokrovsky (purchased from American Type Culture Collection). The cells were cultured in RPMI 1640, supplemented with 10% fetal bovine serum and 1% mixture of antibiotics penicillin-streptomycin (all from Gibco, Waltham, MA, USA) at 5% CO2 and 37 °C in a humidified chamber. Cells were grown to confluence and harvested by trypsinization, using a 0.25 mg/mL trypsin/EDTA solution (ThermoFisher, Carlsbad, CA, USA) and resuspended in the fresh culture medium. Viable cells were enumerated on the Countess II FL Automated Cell Counter (ThermoFisher, Waltham, MA, USA), following Trypan Blue staining. The cell lines were tested for mycoplasma contamination regularly, using the Molecular Probes™ MycoFluor Mycoplasma Detection Kit (ThermoFisher, Waltham, MA, USA).
The cell number was evaluated by counting viable cells using the MTT (3-(4,5-dimethylthiazol-2-yl)-2,5-diphenyltetrazolium bromide) colorimetric assay. A total of 2 × 10^4 cells/well were seeded on independent 96-well plates for each time point (0, 24, 48, and 72 h), with five replicates and treated with two inhibitors (2.5–250 μM). Then, 10 µL of the MTT reagent was added to each well, and cells were incubated for another 5 h. Next, the absorbance value was measured using a CLARIOstar® Plus plate reader (BMG Labtech, Ortenberg, Germany) at 490 nm. Triplicate wells were assayed, and S.D.s were determined.

In experiment [1] the test system is 769-P cells (endolysosomal compartment). As to the kind of experiment: Neutral red assay (endolysosomal integrity), 769-P. In kind it is cell-based, human. As to conditions: 2.5–250 μM; 48 h. The protocol:
(§1) Figure S6. The effect of the peptide inhibitors on human 769‐P and A498 renal cancer cell on
(§2) lysosomes integrity. (a) 769‐P and (b) A498 cells were treated with increasing doses of Ac‐PLVE‐FMK
(§3) (red bars) and Ac‐VLPE‐FMK (blue bars) (2.5–250 μM). NR uptake was measured after 24, 48, and 72
(§4) h via MTT assay. (c) LysoTracker red evaluation in 769‐P and (d) A498 cells after 24, 48, and 72 h with
(§5) the inhibitors (20 μM). Data represent the mean (± S.D.) of at least three independent experiments,
each performed in triplicate.

Experiment [2] has the same test system. Kind of experiment: LysoTracker red fluorescence, 769-P. In kind it is cell-based, human. The settings on record: 20 μM; 48 h; 75 nM LysoTracker red, 1 h, Ex/Em 570/600. The protocol: First, 1.5 × 10^4 769-P or A498 cells were seeded in 96-well plates in full medium. The day after the cells were treated with the peptides for 3 consecutive days to establish 24, 48, and 72 h groups of treatment. LysoTracker Red fluorescence intensity was measured via microplate reader following the protocols described in [75] and applying Ex/Em = 570/600. The cells were incubated with 75 nM of LysoTracker red for 1 h. […]
as §1, §2, §3, §4, §5
each performed in triplicate. […]

*: point of attachment. CH2F = FC*

On to Ac-PLVE-CH2F [Ac-PLVE-FMK], for which the “Inhibition of Ac-PLVQ-AMC cleavage (fluorescent signal)” value in the experiment with human recombinant CtsB is given as “the intensity of the fluorescent signal was significantly affected”. For the same substance, in the experiment on 769-P cells, the Cell viability entry is on record as “cell viability increased, reaching values not significantly different from the control cells” and the “Effect on cell proliferation” value was “cytostatic properties on both cell lines only within 48 h of treatment”. In addition, the Neutral red uptake result in experiment [1] was “slightly increasing”. In addition, the LysoTracker red fluorescence result in experiment [2] was “slightly increasing”.

Take Ac-VLPE-CH2F [Ac-VLPE-FMK]: the “Inhibition of Ac-PLVQ-AMC cleavage (fluorescent signal)” value in the experiment on human recombinant CtsB is on record as “the intensity of the fluorescent signal was significantly affected”. Moreover, in the experiment with 769-P cells, the Cell viability entry was “cell viability increased, reaching values not significantly different from the control cells” and the “Effect on cell proliferation” value is “cytostatic properties on both cell lines only within 48 h of treatment”. Moreover, in experiment [1], the Neutral red uptake entry is “slightly increasing”. Moreover, the LysoTracker red fluorescence result in experiment [2] is recorded as “slightly increasing”.
